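Cultured in 96-well plates, cells were exposed to test compound for 48 hours across five concentrations. GI50 is the concentration that inhibits growth by half. Definition used: TGI = concentration required for complete inhibition of growth.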
How the values were obtained:
Assay in all cases: DTP human tumour cell line panel, 48 h
786-0 renal = system: 786-0 renal
A549 NSCLC = system: A549 NSCLC
ACHN renal = system: ACHN renal
BT-549 breast = system: BT-549 breast
CAKI-1 renal = system: CAKI-1 renal
CCRF-CEM leukemia = system: CCRF-CEM leukemia
COLO 205 colon = system: COLO 205 colon
DU-145 prostate = system: DU-145 prostate
EKVX NSCLC = system: EKVX NSCLC
HCC-2998 colon = system: HCC-2998 colon
HCT-116 colon = system: HCT-116 colon
HCT-15 colon = system: HCT-15 colon
HL-60(TB) leukemia = system: HL-60(TB) leukemia
HOP-62 NSCLC = system: HOP-62 NSCLC
HOP-92 NSCLC = system: HOP-92 NSCLC
HS 578T breast = system: HS 578T breast
HT29 colon = system: HT29 colon
IGROV1 ovarian = system: IGROV1 ovarian
K-562 leukemia = system: K-562 leukemia
KM12 colon = system: KM12 colon
LOX IMVI melanoma = system: LOX IMVI melanoma
MALME-3M melanoma = system: MALME-3M melanoma
MCF7 breast = system: MCF7 breast
MDA-MB-231 breast = system: MDA-MB-231 breast
MDA-MB-435 = system: MDA-MB-435
MOLT-4 leukemia = system: MOLT-4 leukemia
NCI-H226 lung = system: NCI-H226 lung
NCI-H23 lung = system: NCI-H23 lung
NCI-H460 lung = system: NCI-H460 lung
NCI-H522 lung = system: NCI-H522 lung
NCI/ADR-RES ovarian = system: NCI/ADR-RES ovarian
OVCAR-3 ovarian = system: OVCAR-3 ovarian
OVCAR-4 ovarian = system: OVCAR-4 ovarian
OVCAR-5 ovarian = system: OVCAR-5 ovarian
OVCAR-8 ovarian = system: OVCAR-8 ovarian
PC-3 prostate = system: PC-3 prostate
RPMI-8226 leukemia = system: RPMI-8226 leukemia
RXF 393 renal = system: RXF 393 renal
SF-268 CNS = system: SF-268 CNS
SF-295 CNS = system: SF-295 CNS
SF-539 CNS = system: SF-539 CNS
SK-MEL-2 melanoma = system: SK-MEL-2 melanoma
SK-MEL-28 melanoma = system: SK-MEL-28 melanoma
SK-MEL-5 melanoma = system: SK-MEL-5 melanoma
SK-OV-3 ovarian = system: SK-OV-3 ovarian
SN12C renal = system: SN12C renal
SNB-19 CNS = system: SNB-19 CNS
SNB-75 CNS = system: SNB-75 CNS
SW-620 colon = system: SW-620 colon
T-47D breast = system: T-47D breast
TK-10 renal = system: TK-10 renal
U251 CNS = system: U251 CNS
UACC-257 melanoma = system: UACC-257 melanoma
UACC-62 melanoma = system: UACC-62 melanoma
UO-31 renal = system: UO-31 renal

## FC(F)(F)c1cccc2c(SCCc3n[nH]c(=S)o3)ccnc12
786-0 renal
  GI50: > 100 µM
  TGI: > 100 µM
A549 NSCLC
  GI50: 51.6 µM
  TGI: > 100 µM
ACHN renal
  GI50: 60.2 µM
  TGI: > 100 µM
BT-549 breast
  GI50: 30 µM
  TGI: > 100 µM
CAKI-1 renal
  GI50: 45.1 µM
  TGI: > 100 µM
CCRF-CEM leukemia
  GI50: 38.6 µM
  TGI: > 100 µM
COLO 205 colon
  GI50: 64.8 µM
  TGI: > 100 µM
DU-145 prostate
  GI50: 78.4 µM
  TGI: > 100 µM
EKVX NSCLC
  GI50: 27.6 µM
  TGI: > 100 µM
HCC-2998 colon
  GI50: 37.9 µM
  TGI: > 100 µM
HCT-116 colon
  GI50: 44.4 µM
  TGI: > 100 µM
HCT-15 colon
  GI50: 66.2 µM
  TGI: > 100 µM
HL-60(TB) leukemia
  GI50: 67.8 µM
  TGI: > 100 µM
HOP-62 NSCLC
  GI50: 94.2 µM
  TGI: > 100 µM
HOP-92 NSCLC
  GI50: 28.4 µM
  TGI: 81.6 µM
HS 578T breast
  GI50: 30.1 µM
  TGI: > 100 µM
HT29 colon
  GI50: 64.2 µM
  TGI: > 100 µM
IGROV1 ovarian
  GI50: 23.4 µM
  TGI: > 100 µM
K-562 leukemia
  GI50: 47.4 µM
  TGI: > 100 µM
KM12 colon
  GI50: 52.7 µM
  TGI: > 100 µM
LOX IMVI melanoma
  GI50: 67 µM
  TGI: > 100 µM
MALME-3M melanoma
  GI50: 44.5 µM
  TGI: > 100 µM
MCF7 breast
  GI50: 41.6 µM
  TGI: > 100 µM
MDA-MB-231 breast
  GI50: 43.1 µM
  TGI: > 100 µM
MDA-MB-435
  GI50: 45.4 µM
  TGI: > 100 µM
MOLT-4 leukemia
  GI50: 31.2 µM
  TGI: > 100 µM
NCI-H226 lung
  GI50: 37.1 µM
  TGI: > 100 µM
NCI-H23 lung
  GI50: 40 µM
  TGI: > 100 µM
NCI-H460 lung
  GI50: 67.4 µM
  TGI: > 100 µM
NCI-H522 lung
  GI50: 22.6 µM
  TGI: 90 µM
NCI/ADR-RES ovarian
  GI50: 38 µM
  TGI: > 100 µM
OVCAR-3 ovarian
  GI50: 42.9 µM
  TGI: > 100 µM
OVCAR-4 ovarian
  GI50: 32.5 µM
  TGI: > 100 µM
OVCAR-5 ovarian
  GI50: 97.6 µM
  TGI: > 100 µM
OVCAR-8 ovarian
  GI50: 36.5 µM
  TGI: > 100 µM
PC-3 prostate
  GI50: 34.1 µM
  TGI: > 100 µM
RPMI-8226 leukemia
  GI50: 30.3 µM
  TGI: > 100 µM
RXF 393 renal
  GI50: 57 µM
  TGI: > 100 µM
SF-268 CNS
  GI50: 85.6 µM
  TGI: > 100 µM
SF-295 CNS
  GI50: 48.7 µM
  TGI: > 100 µM
SF-539 CNS
  GI50: 45.9 µM
  TGI: > 100 µM
SK-MEL-2 melanoma
  GI50: 25.4 µM
  TGI: 82.6 µM
SK-MEL-28 melanoma
  GI50: 82.9 µM
  TGI: > 100 µM
SK-MEL-5 melanoma
  GI50: 19.5 µM
  TGI: 44.1 µM
SK-OV-3 ovarian
  GI50: 92.7 µM
  TGI: > 100 µM
SN12C renal
  GI50: 51.4 µM
  TGI: > 100 µM
SNB-19 CNS
  GI50: 54.2 µM
  TGI: > 100 µM
SNB-75 CNS
  GI50: 36.3 µM
  TGI: > 100 µM
SW-620 colon
  GI50: > 100 µM
  TGI: > 100 µM
T-47D breast
  GI50: 29.3 µM
  TGI: 93.3 µM
TK-10 renal
  GI50: 66.6 µM
  TGI: > 100 µM
U251 CNS
  GI50: 53.3 µM
  TGI: > 100 µM
UACC-257 melanoma
  GI50: 33.3 µM
  TGI: 89 µM
UACC-62 melanoma
  GI50: 16.6 µM
  TGI: 34 µM
UO-31 renal
  GI50: 25.4 µM
  TGI: > 100 µM
